Publication PMC12562155, “Interference-Free Measurement of Urinary Angiotensin-Converting Enzyme (ACE) Activity: Diagnostic and Therapeutic Monitoring Implications” (Biomedicines, 2025)
Where a name gives a salt, the structure may show the parent alone. Residues, ends and D or L forms follow the SMILES beside them. *: point of attachment. Cbz = O=C(OCc1ccccc1)*

Experiments:
Type in all cases: biochemical
[1] = target: T1, urinary angiotensin-converting enzyme (uACE) (Homo sapiens, UniProt P12821); test: Fluorescent kinetic ACE activity assay on inhibitor-free ACE purified from urine (30 kDa retentate) with potential endogenous inhibitors; settings: for IC50: ACE purified from urine (30 kDa retentate), two-phase decay fit; for uACE inhibition within reference (physiological) urinary concentration range: ACE purified from urine, physiological concentration range of the molecule in urine
T1 construct: from tissue; host or cells: human urine (native, or retentate of 10 kDa / 30 kDa Vivaspin 20 membrane filters)
T1 sequence (P12821 30-1232 limits assumed): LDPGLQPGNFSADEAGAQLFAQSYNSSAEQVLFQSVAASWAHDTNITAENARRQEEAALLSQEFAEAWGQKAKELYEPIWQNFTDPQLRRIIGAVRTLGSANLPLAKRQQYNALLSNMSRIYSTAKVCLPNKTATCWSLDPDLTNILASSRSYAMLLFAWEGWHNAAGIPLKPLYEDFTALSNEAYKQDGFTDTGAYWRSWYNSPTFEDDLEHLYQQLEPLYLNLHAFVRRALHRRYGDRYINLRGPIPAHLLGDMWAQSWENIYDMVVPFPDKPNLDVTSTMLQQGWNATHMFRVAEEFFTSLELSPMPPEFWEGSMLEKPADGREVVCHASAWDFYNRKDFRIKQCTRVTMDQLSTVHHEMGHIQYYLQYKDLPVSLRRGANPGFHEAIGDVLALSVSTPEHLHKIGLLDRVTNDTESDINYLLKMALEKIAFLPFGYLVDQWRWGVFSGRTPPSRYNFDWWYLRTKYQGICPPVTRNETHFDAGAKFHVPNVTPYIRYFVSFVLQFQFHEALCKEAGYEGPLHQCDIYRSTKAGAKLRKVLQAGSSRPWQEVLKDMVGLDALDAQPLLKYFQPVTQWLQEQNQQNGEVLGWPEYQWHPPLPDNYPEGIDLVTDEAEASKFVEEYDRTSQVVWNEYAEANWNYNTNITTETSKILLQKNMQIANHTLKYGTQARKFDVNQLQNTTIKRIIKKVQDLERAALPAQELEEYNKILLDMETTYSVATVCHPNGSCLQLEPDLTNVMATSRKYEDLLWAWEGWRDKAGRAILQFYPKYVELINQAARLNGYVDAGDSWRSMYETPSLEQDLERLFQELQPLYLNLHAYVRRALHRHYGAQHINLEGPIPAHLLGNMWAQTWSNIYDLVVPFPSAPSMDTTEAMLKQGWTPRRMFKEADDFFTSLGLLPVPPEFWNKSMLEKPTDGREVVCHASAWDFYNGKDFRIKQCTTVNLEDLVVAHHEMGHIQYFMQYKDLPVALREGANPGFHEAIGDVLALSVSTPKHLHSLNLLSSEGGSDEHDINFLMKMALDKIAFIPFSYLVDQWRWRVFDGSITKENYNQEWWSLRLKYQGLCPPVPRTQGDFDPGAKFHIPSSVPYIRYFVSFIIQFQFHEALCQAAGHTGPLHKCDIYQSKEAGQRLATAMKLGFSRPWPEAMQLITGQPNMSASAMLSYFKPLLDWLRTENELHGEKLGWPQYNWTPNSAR
Method: (§1) ACE activity was measured using the optimized fluorescent kinetic method previously reported by our group with different sample dilutions for each experiment.
In the final dilutional protocol, the reaction mixture contained 100 mM tris(hydroxymethyl)aminomethane hydrochloride (TRIS) buffer (pH 7.0), 15 μM Abz-FRK(Dnp)P-OH substrate (synthesized by Peptide 2.0, Chantilly, VA, USA), 50 mM NaCl, 10 μM ZnCl2, and urine at 64-fold and 128-fold final dilutions. […] Continuous recording of fluorescent intensity change was performed for 90 min with 1-min measurement intervals at 37 °C. Data points between 20 min and 80 min were used for analysis. When activity measured at 64-fold dilution exceeded that measured at 128-fold, the 64-fold results were used to avoid over-dilution bias of dilute urine samples.
Inhibitor-free ACE pre-purified on a 30 kDa Vivaspin 20 membrane filter column was used to identify inhibitors. Potential inhibitors were dissolved according to factory instructions (Urea: Cat. No.: U6504-1KG; Sigma-Aldrich, St. Louis, MO, USA; Uric acid: Cat. No.: U2625-25G; Sigma-Aldrich, St. Louis, MO, USA; Urobilinogen: Cat. No: 651-10; Lee Biosolutions, Maryland Heights, MO, USA). In the corresponding experiments, uACE with activities ranging from 0.15 to 0.53 U/L was applied. The obtained curves were fitted using the ‘two-phase decay’ equation in GraphPad Prism software, version 9 (GraphPad Software Inc., San Diego, CA, USA).

[2] = target: T1, urinary angiotensin-converting enzyme (uACE); test: Fluorescent kinetic uACE activity assay with ACE-specific inhibitors and inhibitors of other proteases (sensitivity testing); settings: for effect on measured uACE activity: peptidase inhibitors, inhibitor-free 10 kDa retentate
serum ACE = target: T2, serum ACE (Homo sapiens, UniProt P12821); test: Serum ACE activity in the presence of phosphoramidon; settings: compared with effect on uACE
T2 construct: from tissue; host or cells: serum
T2 sequence (P12821 30-1232 limits assumed): as above
Method: as §1

Structure (SMILES)	uACE inhibition within reference (physiological) urinary concentration range [1]	effect on measured uACE activity [2]	also measured
O=c1[nH]c(=O)c2[nH]c(=O)[nH]c2[nH]1 [Uric acid]	30–50%		IC50 [1]: 3610 µM
CC(C)C[C@H](NC(=O)[C@@H](O)[C@H](N)Cc1ccccc1)C(=O)O [bestatin hydrochloride, Bestatin hydrochloride]		did not alter uACE activity	
CC(C)C[C@H](N[C@@H](Cc1cncn1Cc1cc(Cl)cc(Cl)c1)C(=O)O)C(=O)O [MLN-4760]		had no effect	
C[C@H](NC(=O)[C@@H]1CCCN1C(=O)[C@@H]1CCCN1C(=O)[C@@H](O)[C@H](N)Cc1ccccc1)C(N)=O [apstatin, Apstatin]		did not alter uACE activity	
CC(C)C[C@H](NP(=O)(O)O[C@@H]1O[C@@H](C)[C@H](O)[C@@H](O)[C@H]1O)C(=O)N[C@@H](Cc1c[nH]c2ccccc12)C(=O)O [phosphoramidon disodium salt, Phosphoramidon disodium salt]			reduction of uACE activity ([2]; 1 μM concentration): approximately 35%; effect on serum ACE activity (serum ACE): comparable inhibitory effect
CCC1=C(C)C(Cc2[nH]c(Cc3[nH]c(CC4NC(=O)C(C)=C4CC)c(C)c3CCC(=O)O)c(CCC(=O)O)c2C)NC1=O (stereo not drawn) [Urobilinogen]	3–20%		IC50 [1]: 298 µM; IC50 ([1]; listed as urobilinogen): 298 µM
NC(N)=O [Urea]	10–25%		
CC(C)C[C@@H](N)[C@H](O)C(=O)N[C@H](C(=O)N[C@H](C(=O)N[C@@H](CC(=O)O)C(=O)O)C(C)C)C(C)C.Cl [Amastatin hydrochloride]		had no effect	
NCCCC[C@H](N[C@@H](CCc1ccccc1)C(=O)O)C(=O)N1CCC[C@H]1C(=O)O [lisinopril]			inhibition of ACE activity in control reactions ([2]; 1 μM): completely inhibiting ACE activity; extent of uACE activity inhibition ([2]; ACE-inhibitor drugs, concentration series): completely inhibited
O=C[C@@H]1CCCN1C(=O)[C@@H]1CCCN1C(=O)OCc1ccccc1 [Z-prolyl-prolinal] (Cbz-Pro-Pro-aldehyde)		no detectable effect	
